Results from patent US12037333B2, “Pyridopyrazine and pyridotriazine inhibitors of influenza virus replication” (priority 2018, dated 2024).

Test system: Influenza type B (cell culture adapted strain B/Lee/40, ATCC VR-1535)
Assay: Influenza antiviral assay: inhibition of virus-induced cytopathic effects (CPE) in MDCK cells, XTT dye reduction
Assay type: cell-based
Details: Influenza B virus, MDCK, 96 h, strain B/Lee/40, MDCK cells, CPE inhibition at 4 days

SMILES | EC50
O=C1c2c(O)c(=O)ccn2N(C23c4ccccc4CC2Cc2c3ccc(F)c2F)CN1CC1CCOCC1 (centres unmarked) [Compound A15, 1-(1,2-Difluoro-9a,10-dihydro-9H-indeno[1,2-a]inden-4b-yl)-5-hydroxy-3-(tetrahydro-pyran-4-ylmethyl)-2,3-dihydro-1H-pyrido[2,1-f][1,2,4]triazine-4,6-dione] | < 125 nM
O=C1c2c(O)c(=O)ccn2N(C23c4ccccc4CC2Cc2cc(F)c(F)cc23)CN1CC1CCOCC1 (centres unmarked) [Compound A16, 1-(2,3-Difluoro-9a,10-dihydro-9H-indeno[1,2-a]inden-4b-yl)-5-hydroxy-3-(tetrahydro-pyran-4-ylmethyl)-2,3-dihydro-1H-pyrido[2,1-f][1,2,4]triazine-4,6-dione] | < 125 nM
O=C1c2c(O)c(=O)ccn2N(C23c4ccccc4CC2Cc2c3ccc(F)c2F)CN1Cc1ccc(F)cc1 (centres unmarked) [Compound A17, 1-(1,2-Difluoro-9a,10-dihydro-9H-indeno[1,2-a]inden-4b-yl)-3-(4-fluoro-benzyl)-5-hydroxy-2,3-dihydro-1H-pyrido[2,1-f][1,2,4]triazine-4,6-dione] | 125 to 250 nM
CN1CN(C23c4ccccc4CC2Cc2cc(F)c(F)cc23)n2ccc(=O)c(O)c2C1=O (centres unmarked) [Compound A19, 1-(2,3-difluoro-9a,10-dihydroindeno[1,2-a]inden-4b(9H)-yl)-5-hydroxy-3-methyl-2,3-dihydro-1H-pyrido[2,1-f][1,2,4]triazine-4,6-dione] | 250 to 375 nM
O=C1c2c(O)c(=O)ccn2N(C23c4ccccc4CC2Cc2cc(F)c(F)cc23)CN1Cc1ccccc1 (centres unmarked) [Compound A21, 3-benzyl-1-(2,3-difluoro-9a,10-dihydroindeno[1,2-a]inden-4b(9H)-yl)-5-hydroxy-2,3-dihydro-1H-pyrido[2,1-f][1,2,4]triazine-4,6-dione] | < 125 nM
O=C1c2c(O)c(=O)ccn2N(C23c4ccccc4CC2Cc2cc(F)c(F)cc23)CN1CCc1ccccc1 (centres unmarked) [Compound A22, 1-(2,3-difluoro-9a,10-dihydroindeno[1,2-a]inden-4b(9H)-yl)-5-hydroxy-3-phenethyl-2,3-dihydro-1H-pyrido[2,1-f][1,2,4]triazine-4,6-dione] | < 125 nM
O=C1c2c(O)c(=O)ccn2N(C23c4ccccc4CC2Cc2cc(F)c(F)cc23)CN1Cc1ccc(F)cc1 (centres unmarked) [Compound A23, 1-(2,3-Difluoro-9a,10-dihydro-9H-indeno[1,2-a]inden-4b-yl)-3-(4-fluoro-benzyl)-5-hydroxy-2,3-dihydro-1H-pyrido[2,1-f][1,2,4]triazine-4,6-dione] | 250 to 375 nM
O=C1c2c(O)c(=O)ccn2N(C23c4ccccc4CC2Cc2cc(F)c(F)cc23)CN1Cc1cccc(F)c1 (centres unmarked) [Compound A24, 1-(2,3-difluoro-9a,10-dihydroindeno[1,2-a]inden-4b(9H)-yl)-3-(3-fluorobenzyl)-5-hydroxy-2,3-dihydro-1H-pyrido[2,1-f][1,2,4]triazine-4,6-dione] | 375 to 500 nM
O=C1c2c(O)c(=O)ccn2N(C23c4ccccc4CC2Cc2c3ccc(F)c2F)CN1CCc1ccccc1 (centres unmarked) [Compound A25, 1-(1,2-difluoro-9a,10-dihydroindeno[1,2-a]inden-4b(9H)-yl)-5-hydroxy-3-phenethyl-2,3-dihydro-1H-pyrido[2,1-f][1,2,4]triazine-4,6-dione] | 375 to 500 nM
O=C1c2c(O)c(=O)ccn2N(C23c4ccccc4CC2Cc2c3ccc(F)c2F)CN1Cc1cccc(F)c1 (centres unmarked) [Compound A26, 1-(1,2-difluoro-9a,10-dihydroindeno[1,2-a]inden-4b(9H)-yl)-3-(3-fluorobenzyl)-5-hydroxy-2,3-dihydro-1H-pyrido[2,1-f][1,2,4]triazine-4,6-dione] | 250 to 375 nM
O=C1c2c(O)c(=O)ccn2N(C23c4ccccc4CC2Cc2c3ccc(F)c2F)CN1CCc1cccc(F)c1 (centres unmarked) [Compound A27, 1-(1,2-difluoro-9a,10-dihydroindeno[1,2-a]inden-4b(9H)-yl)-3-(3-fluorophenethyl)-5-hydroxy-2,3-dihydro-1H-pyrido[2,1-f][1,2,4]triazine-4,6-dione] | 250 to 375 nM
